From patent US20260053931A1, “MDM2 TARGETING PROTACS” (THE WISTAR INSTITUTE OF ANATOMY AND BIOLOGY, priority 2023, published 2026) come the findings set out here.

A value given as a limit tells only on which side of the number the result lay.

By IC50 is commonly meant the concentration needed to halve the response being measured.

Data set [1] has as its target T1, Mdm2 (Homo sapiens, UniProt Q00987). The data set can be described thus: In-Cell Western, mut p53 MDA-MB-231 cell line. The following applies: mutant p53 MDA-MB-231. The format is cell-based. More on the design: endogenous in cells; host or cells: MCF7 (A8); MDA-MB-231 (A9). On the procedure:
(§1) Cells were seeded at decreasing cell number from 15K cells to 2K cells. The Mdm2 primary antibody was tested at 1:200 and 1:300 dilution. The secondary antibody conjugated to IRDye800CW was used with 1:800 dilution, and CellTag 700 Stain was used at 1:1000 dilution as manufacture recommended. The linearity of cell number versus signal was generated with Prism. The signal over background ratio was also calculated.
(§2) The potential PROTACs were evaluated in the wt p53 MCF7 cell line and in the mut p53 MDA-MB-231 cell line. Importantly these were compared to MD-224, which was recently reported to potently degrade Mdm2 in RS4; 11 leukemia cells (Li et al., 2019). Assay linearity was performed confirming a strong 4-fold signal to noise in the assay. A series of bi-functional molecules were then treated and evaluated for protein level in the assay over time from 2 h-48 h. […] In this wt p53 cancer cell line the stabilization of p53 (FIG. 15B), and subsequent p53-mediated transcriptional upregulation of Mdm2 make it difficult to observe degradation. […] These compounds were evaluated in the mutant p53 cancer cells. […] In this cell line, it takes approximately 16-24 h to detect the degradation. […] The difference in the molecules is that MD-224 utilizes a CRBN recruiting ligand.
Target sequence in this assay (Q00987 whole entry): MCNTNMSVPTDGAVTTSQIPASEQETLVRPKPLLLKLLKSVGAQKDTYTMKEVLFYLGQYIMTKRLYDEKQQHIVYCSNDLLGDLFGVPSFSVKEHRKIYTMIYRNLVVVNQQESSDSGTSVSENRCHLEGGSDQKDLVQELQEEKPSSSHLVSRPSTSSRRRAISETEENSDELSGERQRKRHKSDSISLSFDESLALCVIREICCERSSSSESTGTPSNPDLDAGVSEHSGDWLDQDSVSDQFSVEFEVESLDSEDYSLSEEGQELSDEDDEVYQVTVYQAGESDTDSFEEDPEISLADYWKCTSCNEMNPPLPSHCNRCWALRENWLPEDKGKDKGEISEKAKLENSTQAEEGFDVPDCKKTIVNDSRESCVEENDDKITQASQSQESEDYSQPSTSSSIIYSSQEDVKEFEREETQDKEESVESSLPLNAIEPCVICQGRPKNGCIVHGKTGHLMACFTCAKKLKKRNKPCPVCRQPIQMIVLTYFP

The target of data set [2] is T1, Mdm2. Put plainly: In-Cell Western, wt p53 MCF7 cell line. The following applies: wt p53 MCF7, 2 h-48 h. More on the design: endogenous in cells; host or cells: MCF7 (A8); MDA-MB-231 (A9). It counts as cell-based. As for the experimental part: as §1, §2
Target sequence in this assay (Q00987 whole entry): as above
For data set [3], the system named is mut p53 MDA-MD-231 cells. Put plainly: Live cell count with CellTag700 Stain in ICW format. On the procedure: Cells are seeded in 96 half area well plates (black clear bottom) and cultured overnight. Then they are treated with compounds, fixed with 4% paraformaldehyde for 20 minutes, and permeabilized in 0.1% Triton. They are then treated with the primary antibody and secondary antibody conjugated to IRDye800CW or treated with CellTag 700 Stain. The plates are then scanned on the OdysseyCLX and the data processed to provide a dose response curve.
Since genetic deletion of Mdm2 induces p73 and induces apoptosis in p53 mutant and deficient cancer cells, YX-02-030 and YX-02-228 were evaluated for their effect on cell viability. First, the CellTag700 Stain was utilized to count the number of live cells in the ICW format.

For data set [4], the target named is T1, Mdm2. The data set can be described thus: Mdm2 HTRF binding assay (Table 2). The following applies: read-out: Mdm2 HTRF IC50. From the text: An HTRF binding assay was developed using a biotinylated peptide containing the Mdm2-binding domain of p53 and a recombinant GST-tagged N-terminus of Mdm2 containing the p53-binding domain. HTRF is a proximity-based fluorescence energy transfer (FRET) assay that takes advantage of the unique time-resolved fluorescence of the lanthanide chelates, such as terbium and europium. HTRF IC50 values are provided for all key compounds (FIG. 13C, FIG. 19B, and Table 2).
Target sequence in this assay (Q00987 26-109 limits assumed): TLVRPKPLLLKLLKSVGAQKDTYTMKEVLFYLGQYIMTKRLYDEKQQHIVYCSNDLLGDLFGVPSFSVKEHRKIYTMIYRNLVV

Data set [5] has as its target T2, human cereblon (CRBN) complex (Homo sapiens, UniProt Q96SW2).
T2 construct: purchased R & D systems
Put plainly: HTRF binding assay for Cereblon (Table 2). From the text: (§3) Biochemical assays in 384-well format have established to assess the binding of newly synthesized PROTACs to the appropriate E3 ligase using HTRF technology. In these assays an anti-HIS antibody conjugated to terbium was used as the donor fluor, and either a Cy5 labeled small molecule probe, or a biotinylated peptide that is bound to a streptavidin acceptor.
Cereblon: Recombinant human cereblon (CRBN) complex, including CUL4A, RBX1, DDB1 and CRBN is purchased from R & D systems. This four-member protein complex has an N-terminal HIS tag on the CUL4A subunit. The CRBN complex is diluted in assay buffer containing anti-HIS-Tb Cryptate Gold (CisBio) and is added to low volume 384-well plates. Test compounds in 100% DMSO are added to the plates followed by the Cy5-labeled lenolidamide probe. After 1 hour the HTRF signal is measured on the Envision. Data are normalized to % inhibition. The typical signal-to-noise is 5:1. Bi-functional molecules containing the Cereblon ligands are tested in TABLE 2 (see YX-02-041).

In data set [6] the test system is Mdm2-/-p53-/- sarcoma cells. The data set can be described thus: Murine Mdm2-/-p53-/- sarcoma cells, MTT. The format is cell-based, mouse. The conditions noted are these: MTT assay, 48 hrs. From the text: A-B. Murine Mdm2+/+p53-null sarcoma cells treated with Mdm2 PROTAC (YX-02-030), control YX-02-023 (−), or vehicle (DMSO). A. Western blots after 24 hrs (cleaved caspase 3, CC3. Mdm2^−/−p53^−/− fibroblasts were a control for the Western blot). B. Dose response curve (MTT assay, 48 hrs). C. Dose response curves of murine Mdm2^−/−p53^−/− sarcoma cells treated with Mdm2 PROTAC (YX-02-030), negative controls (−), a Bcl2/Bclx/Bclw inhibitor (+), or vehicle control (MTT assay, quadruplicate, 48 hrs- MTT assay, B-C graphed relative to DMSO).
On the technique in general: Tetrazolium dyes change colour on reduction, which living cells bring about.

Data set [7] concerns the target VHL (Homo sapiens, UniProt P40337). The data set can be described thus: HTRF binding assay for VHL (Table 2).
Excerpt: as §3
(In general: TR-FRET usually uses a lanthanide donor and a delayed reading to cut background.)

Data set [8] has as its system MCF7. Put plainly: Cytotoxicity to wild type p53 cells. The format is cell-based. The following applies: Homo sapiens.
The target in data set [9] is T3, VHL complex (Homo sapiens, UniProt P40337).
T3 construct: purchased R&D systems E3-655-025
Put plainly: Inhibition of HIF-1α peptide binding to the VHL complex using HTRF (Table 3). The conditions noted are these: mean ± S.E.M. of three replications; read-out: VHL-HIFa peptide IC50. On the procedure: Assays contained 2 nM of HIS-VHL complex (R&D systems, E3-655-025), 2 nM of biotin-hydroxyproline-HIF1α peptide (Biotin-[…] (SEQ ID NO: 2), X=hydroxyproline), 0.3 nM anti-HIS-Tb HTRF donor antibody and 4 nM streptavidin-d2 HTRF acceptor (PerkinElmer) in a final volume of 10 μL of 25 mM HEPES, pH 7.4, 150 mM NaCl, 5 mM DTT, 0.005% Tween20 in white low volume 384-well plates. Both HIS-VHL complex and biotin-HIF1α peptide were pre-incubated with their respective HTRF antibodies for 15 min. Test compounds were solubilized at 10 mM in DMSO and concentration series was added to the assay plate using the Echo 650 acoustic liquid handling system by direct dilution. The final amount of DMSO added to the assay was 100 nL […]. Compounds were pre-incubated with HIS-VHL complex before the addition of the biotin-HIF1α peptide. After a 2 hr incubation, the HTRF signal was measured using the ClarioStar plate reader (BMG Labtech). […] IC50 values were determined from nonlinear regression fits of a data to a four parameter dose-response equation using XLFit (IDBS). Data are the means±S.E.M. of three replications. The data is described in Table 3 above.

Sequence of VHL (P40337 whole entry): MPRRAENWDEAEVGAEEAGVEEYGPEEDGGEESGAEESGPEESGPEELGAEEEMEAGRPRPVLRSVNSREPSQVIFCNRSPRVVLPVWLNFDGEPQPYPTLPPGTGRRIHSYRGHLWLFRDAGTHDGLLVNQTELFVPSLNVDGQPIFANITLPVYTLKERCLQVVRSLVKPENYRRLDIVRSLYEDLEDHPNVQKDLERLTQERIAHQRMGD
Sequence of VHL (Q15370 whole entry partner): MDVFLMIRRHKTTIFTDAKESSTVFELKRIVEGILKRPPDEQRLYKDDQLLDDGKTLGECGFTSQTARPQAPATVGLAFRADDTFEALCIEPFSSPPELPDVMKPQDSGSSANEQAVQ
Sequence of VHL (Q15369 whole entry partner): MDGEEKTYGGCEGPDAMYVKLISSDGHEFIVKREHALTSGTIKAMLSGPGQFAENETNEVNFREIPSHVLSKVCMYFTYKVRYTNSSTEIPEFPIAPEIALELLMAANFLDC
T3 sequence (P40337 whole entry): as the sequence (P40337 whole entry) above
T3 sequence (Q15370 whole entry partner): as the sequence (Q15370 whole entry partner) above
T3 sequence (Q15369 whole entry partner): as the sequence (Q15369 whole entry partner) above
T3 sequence (Q13617 whole entry partner): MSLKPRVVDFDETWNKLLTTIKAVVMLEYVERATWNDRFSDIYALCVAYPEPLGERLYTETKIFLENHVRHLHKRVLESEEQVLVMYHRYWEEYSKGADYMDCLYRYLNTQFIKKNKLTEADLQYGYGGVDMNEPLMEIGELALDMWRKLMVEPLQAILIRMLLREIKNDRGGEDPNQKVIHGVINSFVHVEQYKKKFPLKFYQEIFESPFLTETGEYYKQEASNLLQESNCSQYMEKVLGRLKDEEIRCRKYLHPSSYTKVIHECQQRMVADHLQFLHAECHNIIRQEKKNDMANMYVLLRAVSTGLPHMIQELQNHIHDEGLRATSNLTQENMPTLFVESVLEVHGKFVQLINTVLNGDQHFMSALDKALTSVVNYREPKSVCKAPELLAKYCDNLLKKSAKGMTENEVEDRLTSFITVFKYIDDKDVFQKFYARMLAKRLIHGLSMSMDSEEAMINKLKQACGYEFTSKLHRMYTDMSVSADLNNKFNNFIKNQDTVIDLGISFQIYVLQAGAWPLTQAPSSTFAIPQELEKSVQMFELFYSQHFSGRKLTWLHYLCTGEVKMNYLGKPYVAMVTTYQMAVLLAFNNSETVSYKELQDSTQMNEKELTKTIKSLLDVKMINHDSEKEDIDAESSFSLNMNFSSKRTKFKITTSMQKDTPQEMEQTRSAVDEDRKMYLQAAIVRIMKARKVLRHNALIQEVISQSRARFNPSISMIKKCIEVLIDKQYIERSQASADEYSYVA
T3 sequence (P62877 whole entry partner): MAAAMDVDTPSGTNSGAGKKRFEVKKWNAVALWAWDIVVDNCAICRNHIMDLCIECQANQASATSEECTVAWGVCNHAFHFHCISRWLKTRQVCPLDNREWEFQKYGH
T2 sequence (Q96SW2 whole entry): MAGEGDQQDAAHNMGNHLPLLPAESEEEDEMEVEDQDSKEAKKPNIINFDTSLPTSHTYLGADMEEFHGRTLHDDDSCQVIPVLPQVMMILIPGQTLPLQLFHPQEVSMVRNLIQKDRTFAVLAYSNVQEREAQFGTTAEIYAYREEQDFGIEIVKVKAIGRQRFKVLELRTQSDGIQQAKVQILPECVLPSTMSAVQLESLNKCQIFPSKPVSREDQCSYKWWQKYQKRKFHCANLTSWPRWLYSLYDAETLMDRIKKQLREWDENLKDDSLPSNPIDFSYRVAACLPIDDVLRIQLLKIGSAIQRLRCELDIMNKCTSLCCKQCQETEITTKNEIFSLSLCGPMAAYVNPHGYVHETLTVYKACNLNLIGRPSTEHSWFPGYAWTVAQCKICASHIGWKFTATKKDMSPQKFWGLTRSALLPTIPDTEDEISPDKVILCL
T2 sequence (Q16531 whole entry partner): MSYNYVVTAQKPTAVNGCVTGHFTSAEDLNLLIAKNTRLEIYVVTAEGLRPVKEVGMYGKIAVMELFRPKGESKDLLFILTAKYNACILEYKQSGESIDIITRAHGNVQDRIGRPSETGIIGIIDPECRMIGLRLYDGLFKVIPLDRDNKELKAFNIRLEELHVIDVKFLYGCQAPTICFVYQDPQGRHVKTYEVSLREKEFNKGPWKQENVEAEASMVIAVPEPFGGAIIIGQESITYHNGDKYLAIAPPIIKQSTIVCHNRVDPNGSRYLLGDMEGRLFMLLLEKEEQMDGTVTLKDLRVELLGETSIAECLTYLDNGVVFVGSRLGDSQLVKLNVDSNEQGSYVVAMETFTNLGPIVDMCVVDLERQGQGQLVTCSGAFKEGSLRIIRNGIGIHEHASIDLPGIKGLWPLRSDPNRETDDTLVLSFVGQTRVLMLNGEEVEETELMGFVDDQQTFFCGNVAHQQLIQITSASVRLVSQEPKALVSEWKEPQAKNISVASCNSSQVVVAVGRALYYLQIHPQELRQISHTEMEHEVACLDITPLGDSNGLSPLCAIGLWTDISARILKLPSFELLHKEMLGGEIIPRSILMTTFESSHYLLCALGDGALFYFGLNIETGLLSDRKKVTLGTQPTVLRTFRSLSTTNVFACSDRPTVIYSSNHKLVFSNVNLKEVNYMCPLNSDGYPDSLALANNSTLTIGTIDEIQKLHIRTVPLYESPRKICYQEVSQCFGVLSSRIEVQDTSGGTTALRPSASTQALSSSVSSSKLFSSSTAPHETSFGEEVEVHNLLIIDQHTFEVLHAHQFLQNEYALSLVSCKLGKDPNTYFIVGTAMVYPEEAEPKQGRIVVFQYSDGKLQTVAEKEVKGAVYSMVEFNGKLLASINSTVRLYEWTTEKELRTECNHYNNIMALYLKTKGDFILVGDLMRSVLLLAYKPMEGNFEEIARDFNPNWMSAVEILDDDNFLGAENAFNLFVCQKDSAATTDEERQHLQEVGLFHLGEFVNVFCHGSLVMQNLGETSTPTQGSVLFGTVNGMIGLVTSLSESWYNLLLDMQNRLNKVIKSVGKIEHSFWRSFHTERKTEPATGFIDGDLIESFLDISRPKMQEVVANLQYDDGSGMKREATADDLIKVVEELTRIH
T2 sequence (Q13619 whole entry partner): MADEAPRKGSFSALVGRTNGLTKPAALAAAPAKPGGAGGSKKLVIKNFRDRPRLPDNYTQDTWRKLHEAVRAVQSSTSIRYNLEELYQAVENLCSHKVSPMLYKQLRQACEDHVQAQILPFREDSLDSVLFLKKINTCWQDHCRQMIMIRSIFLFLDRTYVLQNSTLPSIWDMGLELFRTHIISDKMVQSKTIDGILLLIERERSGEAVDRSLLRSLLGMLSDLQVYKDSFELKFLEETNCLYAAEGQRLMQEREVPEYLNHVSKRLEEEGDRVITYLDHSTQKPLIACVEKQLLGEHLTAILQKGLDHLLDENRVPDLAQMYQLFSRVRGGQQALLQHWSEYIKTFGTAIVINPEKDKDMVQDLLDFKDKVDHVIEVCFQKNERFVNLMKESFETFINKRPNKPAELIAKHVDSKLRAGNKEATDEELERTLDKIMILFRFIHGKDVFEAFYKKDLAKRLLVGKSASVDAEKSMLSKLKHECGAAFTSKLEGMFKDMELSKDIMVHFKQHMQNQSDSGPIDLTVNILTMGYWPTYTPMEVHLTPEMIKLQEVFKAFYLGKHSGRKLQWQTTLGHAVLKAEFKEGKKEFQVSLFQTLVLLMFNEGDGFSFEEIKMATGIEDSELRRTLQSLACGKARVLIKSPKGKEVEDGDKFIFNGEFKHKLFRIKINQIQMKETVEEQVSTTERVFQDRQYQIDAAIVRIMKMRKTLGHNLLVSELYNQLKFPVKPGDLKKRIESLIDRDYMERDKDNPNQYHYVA
T2 sequence (P62877 whole entry partner): as the sequence (P62877 whole entry partner) above

For `O=C1CCC(N2Cc3c(C#CCCCNC(=O)c4ccc(NC(=O)[C@@H]5NC6(CCCCC6)[C@@]6(C(=O)Nc7cc(Cl)ccc76)[C@H]5c5cccc(Cl)c5F)cc4)cccc3C2=O)C(=O)N1` (stereo partly drawn) [MD-224, reference compound], the Mdm2 degradation entry in data set [1] is “did not reduce Mdm2 protein level”. In addition, in [2], the Mdm2 protein level result is “modest degradation”. Further, in [3] (after 24 h and 48 h treatment), the “cytotoxic effect, number of live cells” value is on record as “no cytotoxic effect”.
As to `CCOc1cc(C(C)(C)C)ccc1C1=NC(C)(c2ccc(Cl)cc2)C(C)(c2ccc(Cl)cc2)N1C(=O)N1CCN(CC(=O)N[C@H](C(=O)N2C[C@H](O)C[C@H]2C(=O)NCc2ccc(-c3scnc3C)cc2)C(C)(C)C)CC1` (stereo in doubt) [YX-02-230, 1-(2-(2-(4-((4S,5R)-2-(4-(tert-butyl)-2-ethoxyphenyl)-4,5-bis(4-chlorophenyl)-4,5-dimethyl-4,5-dihydro-1H-imidazole-1-carbonyl)piperazin-1-yl)acetamido)-3,3-dimethylbutanoyl)-4-hydroxy-N-(4-(4-methylthiazol-5-yl)benzyl)pyrrolidine-2-carboxamide], the values for the IC50 in data set [4] and in [5] were 0.018 µM and over 10 µM, respectively.
For `CC1(C)CCC(c2ccc(Cl)cc2)=C(CN2CCN(c3ccc(C(=O)NS(=O)(=O)c4ccc(N[C@H](CCN5CCOCC5)CSc5ccccc5)c(S(=O)(=O)C(F)(F)F)c4)cc3)CC2)C1` [ABT-263/Navitoclax, Navitoclax, reference compound], the “response of Mdm2-/-p53-/- sarcoma cells” value in [6] is “responsive”.
With `CCOc1cc(C(C)(C)C)ccc1C1=N[C@@](C)(c2ccc(Cl)cc2)[C@@](C)(c2ccc(Cl)cc2)N1C(=O)N1CCN(CC(=O)NCCCCNC(=O)COc2cccc3c2C(=O)N(C2CCC(=O)NC2=O)C3=O)CC1` (mixture of isomers) [YX-02-041, 2-(4-((4S,5R)-2-(4-(tert-butyl)-2-ethoxyphenyl)-4,5-bis(4-chlorophenyl)-4,5-dimethyl-4,5-dihydro-1H-imidazole-1-carbonyl)piperazin-1-yl)-N-(4-(2-((2-(2,6-dioxopiperidin-3-yl)-1,3-dioxoisoindolin-4-yl)oxy)acetamido)butyl)acetamide], the IC50 in data set [7] is over 10 µM; in data set [4], 0.003 µM; in data set [8] it was about 20 µM. Further, the Mdm2 degradation result in data set [1] is “did not provide robust degradation”. Moreover, the “cytotoxicity to mutant p53 cells” value in data set [3] (other studies, compared with MCF7) is on record as “much less cytotoxic”.
Regarding `COc1ccc(C2=N[C@@H](c3ccc(Cl)cc3)[C@@H](c3ccc(Cl)cc3)N2C(=O)N2CCNC(=O)C2)c(OC(C)C)c1` [Nutlin-3, reference compound], the concentration for half-maximal inhibition (IC50) in data set [9] was over 10 µM.
